pIC50: −log10 of the molar value.

Common to all, as to format: functional
Experiment [1] is described as follows: DPPH radical scavenging activity.
A short description of experiment [2]: Superoxide anion radical scavenging activity by xanthine/xanthine oxidase method.
A short description of experiment [3]: ABTS radical scavenging activity.

In the case of `O=C(O)/C=C/c1ccc(O)c(O)c1` [CAFFEIC ACID], the pIC50 is 4.52 in experiment [1], 5.54 in experiment [2] and 5.55 in experiment [3].
Regarding `COC1Oc2cc(/C=C/c3ccc(O)c(O)c3)oc(=O)c2-c2cc(O)c(O)cc21` (stereo unspecified) [INOSCAVIN D], the pIC50 in experiment [1] is less than 4.00; in experiment [2] it was less than 4.00; in experiment [3], 4.90.
`COc1cc(/C=C/c2cc3c(c(=O)o2)-c2cc(O)c(O)cc2C(OC)O3)ccc1O` (stereo unspecified) [METHYLINOSCAVIN D]: the pIC50 in experiment [1] was less than 4.00; in experiment [2], 4.39; in experiment [3], 5.06.
As to `O=c1oc2cc(/C=C/c3ccc(O)c(O)c3)oc(=O)c2c2cc(O)c(O)cc12` [PHELLIGRIDIN D], the pIC50 in experiment [1] is less than 4.00; in experiment [2], less than 4.00; in experiment [3] it was 4.86.
On to `O=Cc1ccc(O)c(O)c1` [PROTOCATECHUALDEHYDE], for which the pIC50 in experiment [1] is 4.53; in experiment [2], 4.60; in experiment [3], 5.30.
For the molecule `O=C(O)c1ccc(O)c(O)c1` [PROTOCATECHUIC ACID], the pIC50 in experiment [1] is 4.57; in experiment [2] it was less than 4.00; in experiment [3], 4.80.
Taken in the same sequence, the figures for VITAMIN E were 4.94, less than 4.00 and 5.06.
